Positions of bridges follow the written chain, without caps; N, C: chain ends. Non-standard residues stand in square brackets, D forms with d. Residues, ends and D or L forms follow the SMILES beside them. *: point of attachment. X1 = CC[C@H](C)CCCCC(=O)*; Dab = NCC[C@H](N)C(=O)O
How the values were obtained:
A. baumannii = settings: murine thigh infection model; cited from earlier work
[1] = Population PK model of colistin in plasma (NONMEM, one-compartment, Weibull absorption); assay type: in vivo, human
Description: The time courses of colistin concentrations in ELF and plasma were best described using one-compartment models with a Weibull absorption process. The following structural PK model described by two differential equations was applied:(1) dA1/dt=−WB×A1 (2) WB=KAMAX×1−e^−RA×time^GAM (3) dA2/dt=WB×A1−CL/V×A2 where A1 and A2 represent the amounts of colistin in ELF and plasma, and WB denotes the Weibull absorption function with parameters KAMMA, RA, and GAM. KAMMA determines the function’s maximum value, often representing the maximum rate of absorption or event occurrence. RA, the shape parameter, controls the rate of change over time, influencing the distribution’s slope and how quickly it increases or decreases. GAM adjusts the time variable’s exponent, controlling the rate of growth or decline over time, thereby affecting the distribution’s asymmetry and indicating the curve’s speed in reaching its peak or declining. CL and V are the total clearance and volume of distribution for colistin, respectively. The estimated CL and V in Table 2 were expressed as CL/fm and V/fm, respectively, where fm represents the fraction of CMS metabolized to colistin, a value that cannot be estimated from our study data. No significant covariates influencing the PK parameters were identified. The estimated PK parameters for the final PK models are presented in Table 2, while individual fit plots for colistin in ELF and plasma can be found in Figure 2 and Figure 3, respectively. Diagnostic goodness-of-fit plots for the final PK model of colistin in ELF and plasma are shown in Supplementary Materials Figures S1 and S2, respectively. […] With the observed 10th, 50th, and 90th percentiles mostly within the 95% confidence intervals of the simulated percentiles, the final PK models effectively explained the observed concentrations and had good predictive performance.
A population PK analysis of colistin in ELF and plasma was conducted using NONMEM 7.5.0 (ICON Clinical Research LLC, North Wales, PA, USA). The analysis used first-order conditional estimation with interaction (FOCEI) to estimate both observed fixed and unexplained random effect parameters. The FOCEI allows the inter-individual variability (IIV) in the PK parameters to interact with the residual unexplained variability (RUV) in the observed concentrations. The RUV arises from factors such as within-subject variability, assay error, and potential misspecification of the model. ADVAN1 TRANS2 and ADVAN3 TRANS4 from the NONMEM PK model library were used to construct the single- and two-compartment models, respectively. Except for drug inhalation, all PK processes were assumed to follow first-order kinetics. Various absorption models, including zero-order, first-order, Weibull, and transit absorption models, were investigated to describe the absorption processes of colistin.
The representation of each PK parameter was given by θi = θ × exp(ηi), where θ stands for the typical value of the PK parameter, θi represents an individual PK parameter, and ηi is a random variable associated with IIV. It was assumed that IIV follows a normal distribution with a mean of 0 and a variance of ω^2. For RUV, which was assumed to be normally distributed with a mean of 0 and a variance of σ^2; additive, proportional, and combined additive and proportional error models were investigated.
Models were assessed and chosen based on NONMEM objective function values (OFVs), the precision of parameter estimates (relative standard errors), the shrinkage of IIV, and diagnostic goodness-of-fit plots. In the log-likelihood ratio test, if the decrease in OFV (ΔOFV) is greater than 3.84 for models with one additional degree of freedom or greater than 5.99 for models with two additional degrees of freedom, it is considered statistically significant at p < 0.05, indicating an improvement in the model. […]

[2] = Individual steady-state fAUC of colistin in ELF and plasma by clinical and microbiological outcome; assay type: in vivo, human; settings: for fAUC, median (IQR): steady state over 24 h
Experimental: We investigated whether the fAUC values of individual patients were associated with clinical or microbiological outcomes (Table 3). Using individual estimates of CL derived from the final PK model, we calculated the steady-state fAUC for each patient when a total of 3.75 MIU (=300 mg CMS = 112.5 mg CBA) was administered at 6 h intervals four times a day, using the formula AUC = DOSE/CL. The unbound fraction of colistin was assumed to be 10% [25] in the ELF based on the study by Gkoufa et al. and 34% in the plasma based on the study by Mohamed et al.. Gkoufa et al. presented concentration–time profiles of colistin predicted through simulations, assuming unbound fractions in the ELF of 0.01, 0.015, 0.05, and 0.099 [25]. From these, we approximated the unbound fraction at 0.1 by rounding 0.099. Meanwhile, Mohamed et al. determined the unbound fraction in plasma using equilibrium dialysis and reported a measured median (range) colistin unbound fraction of 34% (26–41%).
The PK/PD index for colistin is the area under the free colistin concentration-–time curve at steady state over 24 h divided by the pathogen minimum inhibitory concentration (fAUC/MIC). Since we were unable to obtain MIC values for A. baumannii, we evaluated the relationship between the PK and PD of colistin by comparing the fAUC of each patient in accordance with their clinical outcomes and microbiological outcomes. AUC was calculated by dividing the daily dose by patient, which was the individual post hoc Bayesian estimate of the developed PK model. […] The Wilcoxon rank-sum test was used to assess the relationships between fAUC and clinical outcomes, and the Kruskal–Wallis test was used to investigate the association between fAUC and microbiological outcomes. Additionally, leveraging typical PK parameter values from final models of ELF and plasma samples, we simulated concentration-time profiles of colistin for nebulization doses of 25 mg, 50 mg, 75 mg, 100 mg, and 125 mg in patients. Subsequently, we generated concentration–time plots and computed fAUC values.

SMILES: CC[C@H](C)CCCCC(=O)N[C@@H](CCN)C(=O)N[C@H](C(=O)N[C@@H](CCN)C(=O)N[C@H]1CCNC(=O)[C@H]([C@@H](C)O)NC(=O)[C@H](CCN)NC(=O)[C@H](CCN)NC(=O)[C@H](CC(C)C)NC(=O)[C@@H](CC(C)C)NC(=O)[C@H](CCN)NC1=O)[C@@H](C)O [colistin] (X1-[Dab]T[Dab][Dab][Dab][dL]L[Dab][Dab]T; lactam 4-C)
- fAUC/MIC target values for a 2 log10 kill (A. baumannii): 17.5–43.0 mg/L·h
- CL/fm, bootstrap median (95% CI) ([1]; 2000 bootstrap samples): 26.1 (6.66–67) mL/min
- KAMAX, bootstrap median (95% CI) ([1]; 2000 bootstrap samples): 1.20 (0.912–1.59)
- V/fm, bootstrap median (95% CI) ([1]; 2000 bootstrap samples): 67.2 (46.6–93) L
- KAMAX (maximum rate of absorption), estimate ([1]; Weibull absorption): 1.20
- CL/fm, estimate ([1]; final PK model): 26.3 mL/min
- V/fm, estimate ([1]; final PK model): 67.4 L
- fAUC, median (IQR) ([2]; ELF, clinical outcome cured/improved, 16 patients, 3.75 MIU CMS/day at 6 h intervals, AUC = dose/CL, bioavailability 9%, unbound fraction 10%): 36.7 (18.2–62.9) mg/L·h
- fAUC, median (IQR) ([2]; ELF, clinical outcome failed, 4 patients, 3.75 MIU CMS/day, unbound fraction 10%): 31.7 (15.4–47.8) mg/L·h
- fAUC, median (IQR) ([2]; ELF, microbiological outcome eradicated, 8 patients, 3.75 MIU CMS/day): 61.2 (12.5–111) mg/L·h
- fAUC, median (IQR) ([2]; ELF, microbiological outcome indeterminate, 2 patients, 3.75 MIU CMS/day): 33.9 (30.0–37.9) mg/L·h
- fAUC, median (IQR) ([2]; ELF, microbiological outcome persistent, 10 patients, 3.75 MIU CMS/day): 28.5 (17.7–50.5) mg/L·h
- fAUC in ELF relative to plasma ([2]; cured/improved group, mean values): approximately 27.2 times
- fAUC in ELF relative to plasma ([2]; cured/improved group, median values): approximately 26.2 times
- fAUC in ELF relative to plasma ([2]; eradicated group, mean values): 39.8 times
- fAUC in ELF relative to plasma ([2]; eradicated group, median values): 26.0 times
- fAUC in ELF relative to plasma ([2]; failed group, mean values): about 14.0 times
- fAUC in ELF relative to plasma ([2]; failed group, median values): 15.9 times
- fAUC in ELF relative to plasma ([2]; indeterminate group, mean values): 6 times
- fAUC in ELF relative to plasma ([2]; indeterminate group, median values): 6 times
- ELF fAUC, cured/improved relative to treatment failure ([2]; mean values): more than 2.25 times
- ELF fAUC, eradicated relative to indeterminate group ([2]; mean values): 3.24 times
- ELF fAUC, eradicated relative to persistent group ([2]; mean values): 3.48 times
- ELF fAUC, cured/improved relative to treatment failure ([2]; median values): 1.16 times
- ELF fAUC, eradicated relative to indeterminate group ([2]; median values): 1.80 times
- ELF fAUC, eradicated relative to persistent group ([2]; median values): 2.15 times
- fAUC in ELF relative to plasma ([2]; persistent group, mean values): 18.8 times
- fAUC in ELF relative to plasma ([2]; persistent group, median values): 18.2 times
- fAUC, median (IQR) ([2]; plasma, clinical outcome cured/improved, 16 patients, 3.75 MIU CMS/day, unbound fraction 34%): 1.40 (0.752–3.74) mg/L·h
- fAUC, median (IQR) ([2]; plasma, clinical outcome failed, 4 patients, 3.75 MIU CMS/day, unbound fraction 34%): 2.00 (1.87–2.38) mg/L·h
- fAUC, median (IQR) ([2]; plasma, microbiological outcome eradicated, 8 patients, 3.75 MIU CMS/day): 2.36 (0.645–4.11) mg/L·h
- fAUC, median (IQR) ([2]; plasma, microbiological outcome indeterminate, 2 patients, 3.75 MIU CMS/day): 5.96 (5.00–6.91) mg/L·h
- fAUC, median (IQR) ([2]; plasma, microbiological outcome persistent, 10 patients, 3.75 MIU CMS/day): 1.56 (1.00–2.05) mg/L·h
